Test results: patent US20040063662A1, “Selenophene anti-tumor agents” (priority 1996, published 2004)

Experiments:
CCRF-CEM = test: NCI human tumor cell panel: CCRF-CEM (Leukemia); format: cell-based; conditions: Leukemia
MOLT-4 = test: NCI human tumor cell panel: MOLT-4 (Leukemia); format: cell-based; conditions: MOLT-4, Leukemia
SR = test: NCI human tumor cell panel: SR (Leukemia); format: cell-based; conditions: Leukemia
A549/ATCC = test: NCI human tumor cell panel: A549/ATCC (Non-Small Cell Lung Cancer); format: cell-based; conditions: Non-Small Cell Lung Cancer
HOP-62 = test: NCI human tumor cell panel: HOP-62 (Non-Small Cell Lung Cancer); format: cell-based; conditions: HOP-62, Non-Small Cell Lung Cancer
NCI-H23 = test: NCI human tumor cell panel: NCI-H23 (Non-Small Cell Lung Cancer); format: cell-based; conditions: NCI-H23, Non-Small Cell Lung Cancer
NCI-H322M = test: cells; format: cell-based; conditions: Homo sapiens, Non-Small Cell Lung Cancer
NCI-H460 = test: NCI human tumor cell panel: NCI-H460 (Non-Small Cell Lung Cancer); format: cell-based; conditions: NCI-H460, Non-Small Cell Lung Cancer
HCT-116 = test: NCI human tumor cell panel: HCT-116 (Colon Cancer); format: cell-based; conditions: HCT-116, Colon Cancer
HT29 = test: NCI human tumor cell panel: HT29 (Colon Cancer); format: cell-based; conditions: HT-29, HT29, Colon Cancer
SF-295 = test: NCI human tumor cell panel: SF-295 (CNS Cancer); format: cell-based; conditions: SF-295, CNS Cancer
SF-539 = test: NCI human tumor cell panel: SF-539 (CNS Cancer); format: cell-based; conditions: SF-539, CNS Cancer
SNB-19 = test: NCI human tumor cell panel: SNB-19 (CNS Cancer); format: cell-based; conditions: SNB-19, CNS Cancer
U251 = test: NCI human tumor cell panel: U251 (CNS Cancer); format: cell-based; conditions: U-251, U251, CNS Cancer
MALME-3M = test: NCI human tumor cell panel: MALME-3M (Melanoma); format: cell-based; conditions: MALME-3M, Melanoma
M14 = test: NCI human tumor cell panel: M14 (Melanoma); format: cell-based; conditions: M14, Melanoma
SK-MEL-28 = test: NCI human tumor cell panel: SK-MEL-28 (Melanoma); format: cell-based; conditions: SK-MEL-28, Melanoma
SK-MEL-5 = test: NCI human tumor cell panel: SK-MEL-5 (Melanoma); format: cell-based; conditions: SK-MEL-5, Melanoma
UACC-257 = test: NCI human tumor cell panel: UACC-257 (Melanoma); format: cell-based; conditions: UACC-257, Melanoma
UACC-62 = test: NCI human tumor cell panel: UACC-62 (Melanoma); format: cell-based; conditions: UACC-62, Melanoma
OVCAR-3 = test: NCI human tumor cell panel: OVCAR-3 (Ovarian Cancer); format: cell-based; conditions: OVCAR-3, Ovarian Cancer
OVCAR-4 = test: NCI human tumor cell panel: OVCAR-4 (Ovarian Cancer); format: cell-based; conditions: OVCAR-4, Ovarian Cancer
A498 = test: NCI human tumor cell panel: A498 (Renal Cancer); format: cell-based; conditions: A498, Renal Cancer
ACHN = test: NCI human tumor cell panel: ACHN (Renal Cancer); format: cell-based; conditions: Renal Cancer
TK-10 = test: NCI human tumor cell panel: TK-10 (Renal Cancer); format: cell-based; conditions: TK-10, Renal Cancer
PC-3 = test: NCI human tumor cell panel: PC-3 (Prostate Cancer); format: cell-based; conditions: PC-3, Prostate Cancer
MCF7 = test: NCI human tumor cell panel: MCF7 (Breast Cancer); format: cell-based; conditions: MCF7, Breast Cancer
MCF7/ADR-RES = test: NCI human tumor cell panel: MCF7/ADR-RES (Breast Cancer); format: cell-based; conditions: Breast Cancer
HS 578T = test: NCI human tumor cell panel: HS 578T (Breast Cancer); format: cell-based; conditions: Breast Cancer
MDA-MB-435 = test: NCI human tumor cell panel: MDA-MB-435 (Breast Cancer); format: cell-based; conditions: MDA-MB-435, Breast Cancer
MDA-N = test: NCI human tumor cell panel: MDA-N (Breast Cancer); format: cell-based; conditions: Breast Cancer
HOP-92 = test: NCI human tumor cell panel: HOP-92 (Non-Small Cell Lung Cancer)
[1] = read-out: Log10 GI50 (converted)
[2] = read-out: Log10 TGI (converted)

`OCc1ccc(-c2ccc(-c3cccs3)[se]2)s1` [NSC 675344] gave a GI50 (CCRF-CEM; [1]) greater than 100 µM, an IC (TGI) (CCRF-CEM; [2]) greater than 100 µM and a GI50 (MOLT-4; [1]) greater than 100 µM. It also gave an IC (TGI) (MOLT-4; [2]) greater than 100 µM, a GI50 (SR; [1]) greater than 100 µM and an IC (TGI) (SR; [2]) greater than 100 µM. The GI50 (A549/ATCC; [1]) was 45.7 µM, the IC (TGI) (A549/ATCC; [2]) was greater than 100 µM and the GI50 (HOP-62; [1]) was 34.7 µM. For the same compound, the IC (TGI) (HOP-62; [2]) was greater than 100 µM, the GI50 (NCI-H23; [1]) was 20.4 µM and the IC (TGI) (NCI-H23; [2]) was greater than 100 µM. It also gave a GI50 (NCI-H322M; [1]) of 20.9 µM, an IC (TGI) (NCI-H322M; [2]) greater than 100 µM and a GI50 (NCI-H460; [1]) of less than 0.01 µM. The IC (TGI) (NCI-H460; [2]) was greater than 100 µM, the GI50 (HCT-116; [1]) was less than 0.01 µM and the IC (TGI) (HCT-116; [2]) was 0.0417 µM. For the same compound, the GI50 (HT29; [1]) was greater than 100 µM, the IC (TGI) (HT29; [2]) was greater than 100 µM and the GI50 (SF-295; [1]) was 26.9 µM. The IC (TGI) (SF-295; [2]) was greater than 100 µM, the GI50 (SF-539; [1]) was greater than 100 µM and the IC (TGI) (SF-539; [2]) was greater than 100 µM. The GI50 (SNB-19; [1]) was 29.5 µM, the IC (TGI) (SNB-19; [2]) was greater than 100 µM and the GI50 (U251; [1]) was 0.0251 µM. The IC (TGI) (U251; [2]) was 26.3 µM, the GI50 (MALME-3M; [1]) was greater than 100 µM and the IC (TGI) (MALME-3M; [2]) was greater than 100 µM. For the same compound, the GI50 (M14; [1]) was greater than 100 µM, the IC (TGI) (M14; [2]) was greater than 100 µM and the GI50 (SK-MEL-28; [1]) was greater than 100 µM. The IC (TGI) (SK-MEL-28; [2]) was greater than 100 µM, the GI50 (SK-MEL-5; [1]) was greater than 100 µM and the IC (TGI) (SK-MEL-5; [2]) was greater than 100 µM. For the same compound, the GI50 (UACC-257; [1]) was less than 0.01 µM, the IC (TGI) (UACC-257; [2]) was 0.0186 µM and the GI50 (UACC-62; [1]) was less than 0.01 µM. For the same compound, the IC (TGI) (UACC-62; [2]) was 0.0141 µM, the GI50 (OVCAR-3; [1]) was less than 0.01 µM and the IC (TGI) (OVCAR-3; [2]) was greater than 100 µM. It also gave a GI50 (OVCAR-4; [1]) of 0.0417 µM, an IC (TGI) (OVCAR-4; [2]) greater than 100 µM and a GI50 (A498; [1]) of less than 0.01 µM. For the same compound, the IC (TGI) (A498; [2]) was 0.0182 µM, the GI50 (ACHN; [1]) was 12.9 µM and the IC (TGI) (ACHN; [2]) was 83.2 µM. The GI50 (TK-10; [1]) was less than 0.01 µM, the IC (TGI) (TK-10; [2]) was 0.0501 µM and the GI50 (PC-3; [1]) was greater than 100 µM. For the same compound, the IC (TGI) (PC-3; [2]) was greater than 100 µM, the GI50 (MCF7; [1]) was 0.126 µM and the IC (TGI) (MCF7; [2]) was greater than 100 µM. The GI50 (MCF7/ADR-RES; [1]) was greater than 100 µM, the IC (TGI) (MCF7/ADR-RES; [2]) was greater than 100 µM and the GI50 (HS 578T; [1]) was 53.7 µM. For the same compound, the IC (TGI) (HS 578T; [2]) was greater than 100 µM, the GI50 (MDA-MB-435; [1]) was greater than 100 µM and the IC (TGI) (MDA-MB-435; [2]) was greater than 100 µM. For the same compound, the GI50 (MDA-N; [1]) was greater than 100 µM, the IC (TGI) (MDA-N; [2]) was greater than 100 µM and the GI50 (HOP-92; HOP-92, read-out: Log10 GI50 (converted)) was 27.5 µM. The IC (TGI) (HOP-92; HOP-92, read-out: Log10 TGI) was 89.1 µM.
